Source: patent US20230125667A1, “NOVEL TDZD ANALOGS AS AGENTS THAT DELAY, PREVENT, OR REVERSE AGE-ASSOCIATED DISEASES AND AS ANTI-CANCER AND ANTILEUKEMIC AGENTS” (United States Government as represented by the Department …, priority 2020, published 2023)
“Also recorded” adds a separate entry of the source.

Experiments:
C. elegans strain AM141 = assay: Q40::YFP aggregates in C. elegans strain AM141; format: in vivo
Protocol: Several TDZD-conjugated drugs (putative GSK-3 inhibitors) were evaluated for their ability to reduce accumulation of protein aggregates, and for protection against aggregation-associated end-points in the following model systems: (i.) SH-SY5Y-APPSw, a neuroblastoma cell line expressing the Swedish mutation of Amyloid Precursor Protein (APPSw), and thus predisposed to form β-amyloid deposits; (ii.) C. elegans strain CL4176, a model of Alzheimer-like amyloidopathy that can be induced to express human Aβ1-42 in muscle, or may express it at a lower level without induction; (iii.) C. elegans strain AM141, a model of Huntington-like polyglutamine aggregation that constitutively expresses Q40::YFP (a tract of 40 glutamines fused in-frame to yellow fluorescent protein) in muscle cells and forms aggregates progressively with adult aging. The TDZD analog PNR-962 (a putative GSK-3 inhibitor) and other related compounds (not shown) were protective in all aggregation assays.
Fresh agar plates supporting bacterial lawns, which serve as food for C. elegans, were prepared at least 1 day ahead of use. C. elegans AM141 (forming Q40::YFP aggregates in muscle, progressively in early adulthood) were placed on these 100-mm plates. Day-4 adult worms were lysed with alkaline hypochlorite solution to obtain eggs from worms, a procedure that permits synchronization of worms in a cohort. Eggs were placed on plates spotted with different concentrations of TDZD analogues after allowing the compounds to be evenly distributed on the plates (˜1 hour after adding drugs to plates). Vehicle-only (DMSO) controls are included in each experiment, as a baseline for drug effects in experimental groups. Young-adult AM141 (day-3 adults) were transferred on alternate days onto fresh plates that contained the same doses of compounds, with fresh E. coli to prevent starvation of worms. Equal samples (n=25) were randomly picked from experimental groups and control group for microscopic imaging. Using an in-house plugin for ImageJ software (NIH), several images of AM141 were processed for aggregate count per worm. The fluorescence intensity of each aggregate (indicating the size/content of protein aggregates) was also measured. Each drug treatment was repeated multiple times to validate the results.

GSK3β = target: T1, GSK3β (Homo sapiens, UniProt P49841); assay: GSK3β activity (kinase) assay in vitro; format: biochemical; conditions: dose-response curves (FIG. 21)
T1 construct: purchased BPS Bioscience
Protocol: The GSK3β activity assay kit (BPS Bioscience) was used, with modification of the manufacturer's protocol. The assay was done in three replicates at three doses (0.01, 0.1, and 1 μM) of each inhibitor (TDZD8, PNR962) in a 96-well plate, using 1% DMSO (final solvent concentration) as the drug-free control. The kinase assay reaction was incubated for 45 minutes at 30′C and Kinase-Glo Max Assay (Promega) was then added and incubated for 15 minutes at room temperature. A negative control contained all the reagents except the test inhibitors and GSK3β enzyme and positive control contained all reagents except the test inhibitor. SpectraMax M3 (Molecular Devices, LLC) was used as a microplate reader. The luminescence negative control reading was used as 0% activity, positive control reading was used as 100% activity and kinase assay was based on the fact that all the reading in wells with test inhibitor, should lie between these values of negative control and positive controls. GSK3β inhibitions were calculated after subtracting negative control values from all the wells and graphs were generated using GraphPad Prism.
The best predicted inhibitors were synthesized, and screened in both human neuronal cells, and in C. elegans models of neurodegeneration. These compounds were also tested for their ability to inhibit GSK3β activity in vitro.

T1 sequence (P49841 whole entry): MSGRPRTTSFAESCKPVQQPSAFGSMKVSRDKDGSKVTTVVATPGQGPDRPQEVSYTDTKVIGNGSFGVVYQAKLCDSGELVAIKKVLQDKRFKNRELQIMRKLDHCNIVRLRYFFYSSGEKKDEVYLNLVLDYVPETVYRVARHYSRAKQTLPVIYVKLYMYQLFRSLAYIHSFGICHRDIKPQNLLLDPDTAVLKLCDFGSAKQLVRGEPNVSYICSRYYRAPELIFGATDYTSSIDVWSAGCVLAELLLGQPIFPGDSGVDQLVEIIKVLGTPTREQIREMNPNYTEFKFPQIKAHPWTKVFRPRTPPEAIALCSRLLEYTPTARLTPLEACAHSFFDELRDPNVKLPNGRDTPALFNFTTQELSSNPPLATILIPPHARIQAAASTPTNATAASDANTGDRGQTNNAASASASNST

ability to inhibit GSK3β activity in vitro (GSK3β): markedly superior to TDZD8
Structure (SMILES): O=c1sn(CCI)c(=O)n1Cc1ccccc1 [PNR-962]
number of Q40::YFP aggregates (C. elegans strain AM141; 5-μM, 3 days of exposure (FIG. 6)): reduces huntingtin-like aggregates; also recorded: reduced the number of aggregates significantly
number of aggregation foci (C. elegans strain AM141; C. elegans model of Huntington's Disease (FIG. 7)): decreases
aggregate intensity (content of Q40-YFP) (C. elegans strain AM141; not shown): reduced aggregate intensity
